Columns and labels:
[1] = test system: rat colon microsomes; test: Glucuronidation by rat colon microsomes; assay type: in vitro ADME
Procedure: (§1) FIG. 5B is a bar graph illustrating in vitro glucuronidation of phenolics in liver and colon microsomes of rats. Glucuronidation rates of 6a1-6a4 by rat liver and colon microsomes were measured. Additional metabolic rates of various locally bioavailable COX-2 inhibitors are in Table 3. […]. The incubation systems were: for glucuronidation, 0.88 mM magnesium chloride (MgCl2), 4.4 mM saccharolactone, 0.022 mg/mL alamethicin, 3.5 mM uridine 5′-diphospho-glucuronic acid (UDPGA), 10 μM substrates and different concentrations of microsomes in 50 mM potassium phosphate buffer (pH 7.4); for sulfation, 10 mM dithiothreitol (DTT), 5 mM MgCl2, 100 μM 3′-phosphoadenosine-5′-phosphosulfate (PAPS), 10 μM substrate and different concentrations of S9 fractions in 50 mM potassium phosphate buffer (pH 7.4).
(§2) In vitro tools were employed to help predict the in vivo metabolism rates of the COX-2 inhibitors that are phenolics. The microsomes and S9 fractions prepared from colon or liver were used to determine the in vivo glucuronidation and sulfation rates of the phenolic compounds, respectively. By employing microsomes and S9 fractions prepared from both rats and humans, it could be determined if the results obtained in the rat model could be reasonably extrapolated to humans. In these experiments, raloxifene and genistein, two phenolic compounds which undergo extensive first-pass metabolism, were selected as controls.

[2] = target: T1, human COX-2 (Homo sapiens, UniProt P35354); test: COX-2 activity (PGE2 production) in HCA-7 cells after A23187; assay type: cell-based; set-up: HCA-7 is a human colon cancer cell line in which COX-2 protein is constitutively expressed; endogenous in cells; host or cells: HCA-7; conditions: 30 min pre-incubation, 10 μM A23187, another 30 minutes
T1 sequence (P35354 18-604): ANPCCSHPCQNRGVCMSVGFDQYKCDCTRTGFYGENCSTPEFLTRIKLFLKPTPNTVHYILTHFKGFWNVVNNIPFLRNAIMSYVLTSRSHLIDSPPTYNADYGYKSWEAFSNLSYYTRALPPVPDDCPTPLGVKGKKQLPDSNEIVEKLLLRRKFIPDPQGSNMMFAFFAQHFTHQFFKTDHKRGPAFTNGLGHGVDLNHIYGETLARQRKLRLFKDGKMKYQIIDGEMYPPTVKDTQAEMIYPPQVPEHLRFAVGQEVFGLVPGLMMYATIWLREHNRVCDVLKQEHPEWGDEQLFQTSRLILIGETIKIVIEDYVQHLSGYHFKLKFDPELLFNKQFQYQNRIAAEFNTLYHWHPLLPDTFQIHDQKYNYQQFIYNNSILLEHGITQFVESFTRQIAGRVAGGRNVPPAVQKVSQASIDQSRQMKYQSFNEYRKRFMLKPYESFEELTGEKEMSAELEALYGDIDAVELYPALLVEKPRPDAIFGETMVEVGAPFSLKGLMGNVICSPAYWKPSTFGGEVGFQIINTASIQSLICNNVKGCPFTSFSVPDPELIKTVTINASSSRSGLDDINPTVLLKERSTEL
Procedure: First, the inhibitory effects of the new synthesized compounds on COX-2 were assayed in two cell lines: Raw264.7 cells and HCA-7 cells. Raw264.7 is a mouse macrophage cell line which expresses a high level of COX-2 protein upon lipopolysaccharide (LPS) induction. […] The concentration of prostaglandins (both PGD2 and PGE2) accumulated in the cell culture medium can be employed as an indicator of COX-2 activity. HCA-7 is a human colon cancer cell line in which COX-2 protein is constitutively expressed. Briefly, the cells were pre-incubated with different concentrations of the new compounds for 30 min, and then 10 μM A23187 (a calcium ionophore) was added to release membrane-bound arachidonic acid (the natural substrate of COX-2) to the cytosolic domain. The system was incubated for another 30 minutes and PGE2 concentrations in the culture medium were determined. In both cell lines, higher PGD2/PGE2 concentrations in the media meant more COX-2 activity.

[3] = test system: rat liver microsomes; test: Glucuronidation by rat liver microsomes; assay type: in vitro ADME
Procedure: as §1, with “FIG. 5A” for “FIG. 5B”, “vitro metabolism” for “vitro glucuronidation”, “phenolics via glucuronidation pathway.” for “phenolics in liver and colon microsomes of rats.”, “of all the new locally bioavailable COX-2 inhibitors” for “of 6a1-6a4”, “liver microsomes.” for “liver and colon microsomes were measured.”, “3′-phosphoadenosine-5′-phosphosulfate (PAPS),10” for “3′-phosphoadenosine-5′-phosphosulfate (PAPS), 10”
as §2

[4] = rat, in vivo, po, 20 mg/kg
Procedure: The drugs were dispersed in ORA-PLUS® suspension vehicle (from Paddock Laboratories, Minneapolis, Minn.) and administrated to SD rats by oral gavage. The blood samples were collected from the tail tips at different time points.
Therefore, 20 mg/kg 6a1 was administered in suspension vehicle to the proximal colon of SD rats via a catheter reaching approximately 8 cm deep into the anus.

[5] = rat, in vivo
Procedure: For this purpose, blood samples were collected from each rat every hour during the perfusion period, and the bile samples were also collected by cannulating the bile duct.
By comparing the 6a1 concentrations in the input and output perfusate containing β-CD-formulated 6a1, the amounts of 6a1 absorbed from the colon were calculated for each hour during the perfusion period (FIG. 10B).

[6] = test system: Caco-2 cell monolayer; test: Metabolism and transport across Caco-2 cell monolayers; assay type: in vitro ADME, human; conditions: 0-8 hours
Procedure: The Caco-2 cell monolayer is a well-established FDA-recognized model to study the absorption, transport, and metabolism of drugs in the human gastrointestinal tract. This allows for prediction of the disposition of the new compounds in colonic epithelium that is also undergoing carcinogenesis, because Caco-2 is a human colorectal cancer cell line.
After 10 μM 6a1 was applied to the apical or basolateral side of the Caco-2 monolayer model, the concentrations of 6a1 and its main phase II metabolites, glucuronide and sulfate, were monitored at both sides (FIG. 6A-D). The concentration of aglycone was also monitored at both sides. […] The majority of sulfates were effluxed to the apical side, while less was transported to the basolateral side. The amount of glucuronide generated by Caco-2 cells was much less than that of sulfates. The glucuronide was also transported to both sides.

[7] = Solubility in HBSS with or without β-cyclodextrin; assay type: physicochemical

| SMILES | Glucuronidation rates by colon microsomes (Mean) [1] [pmol/mg/min] | IC50 [2] [µM] | Glucuronidation by rat liver microsomes (FIG. 5A) [3] | Glucuronidation rates by liver microsomes (Mean) [3] [pmol/mg/min] | Peak blood concentration [4] [µM] | 6a1-glucuronide concentration in bile [5] | Absorbed amount recovered from bile as glucuronides [5] | Fraction absorbed in the colon that escaped first-pass metabolism in the liver [5] | Fraction of total perfused amount absorbed in the colon [5] | Permeation of the Caco-2 cell membrane ([6]; 10 μM applied to apical or basolateral side) | Phase II conjugation inside Caco-2 cells ([6]; 10 μM) | Osmotic pressure of the solution ([7]; 6a1 in HBSS with 4 mM β-CD) [mOsm/kg] | Solubility in HBSS ([7]; in the presence of 4 mM β-CD, after sonication and centrifuge) [µM] |
| --- | --- | --- | --- | --- | --- | --- | --- | --- | --- | --- | --- | --- | --- |
| Cc1ccc(-c2cc(COc3cccc(O)c3)nn2-c2ccc(S(N)(=O)=O)cc2)cc1 [Compound 6a2] | 1199 | 0.134 ± 0.018 | rapidly glucuronidated | 3570 | – | – | – | – | – | – | – | – | – |
| Cc1ccc(-c2cc(COc3ccc(O)cc3)nn2-c2ccc(S(N)(=O)=O)cc2)cc1 [Compound 6a3] | 301 | 0.064 ± 0.005 | – | 590 | 1.69 | – | – | – | – | – | – | – | – |
| Cc1ccc(-c2cc(COc3ccccc3O)nn2-c2ccc(S(N)(=O)=O)cc2)cc1 [Compound 6a1] | 1111 | 0.195 ± 0.03 | rapidly glucuronidated | 6299 | – | more than 200 μM | approximately 75% | less than 1% | Approximately 13% | permeated the Caco-2 cell membrane easily | rapidly conjugated by UGTs and SULTs | 290 | 70 |

Reference: patent publication US11202773B2, “Locally bioavailable drugs” (UNIVERSITY OF HOUSTON SYSTEM, priority 2015, dated 2021)
